Reference: US9018630B2, “Heterocyclic dinaphtho thieno thiophene (DNTT) compounds for use as organic semiconductor thin films in field effect transistors and related methods” (Nippon Kayaku Kabushiki Kaisha, priority 2011, dated 2015)
In brackets after ≈: the same amount, converted by molar mass.

Legend:
[1] = Solubility at 60° C. in toluene (Example 52); assay type: physicochemical
Source text: (§1) Absorption spectrums of saturated solutions obtained by dissolving the DNTT having a C10 alkyl group at 2,9-positions (compound (2)-64), the DNTT having a C10 alkyl group at 3,10-positions (compound (1)-12), and the like in chloroform are shown in FIG. 4. In the case of the DNTT having a C10 long-chain alkyl group, from the results, the relative intensity of the longest absorption wavelength according to the substitution position was 3.9 in 3,10-C10-DNTT (compound (1)-12) wherein the relative intensity was 1 in 2,9-C10-DNTT (compound (2)-64). […] It was clearly found out that the solubility of 3,10-C10-DNTT (compound (1)-12) was also high in a heating state (Table 10).

[2] = Absorption spectrums of saturated chloroform solutions, solubility ratio (Example 52, FIG. 4); assay type: physicochemical; settings: for relative intensity of the longest absorption wavelength / Solubility ratio Chloroform: saturated chloroform solutions; for relative intensity of the longest absorption wavelength: 2,9-C10-DNTT = 1; for Solubility ratio Chloroform: compound (2)-64 = 1; for solubility ratio: from FIG. 4, solubility of the DNTT = 1
Source text: as §1
(§2) From FIG. 4 wherein the solubility of the DNTT was 1, the solubility ratio of the DNTT having a short alkyl chain Ref-02 was 0.1 and the solubility ratio of the DNTT having a short alkyl chain Ref-03 was 0.5. […] It was also found out that considering the solution process, the compound having an alkyl substituent at 3,10-positions has more excellent properties. Namely, use of such high solubility enables production of a field effect transistor by creating a practical ink for creating a semiconductor device or applying the ink created.

[3] = Solvent solubility, qualitative statements; assay type: physicochemical
Source text: as §2

[4] = Heat resistance test of TC type field effect transistors (Example 51); settings: heat resistance test of the transistor
Method: Using the compound (1)-22 synthesized in Example 39 and the compound (2)-64 synthesized in Synthesis Example 14, TC type field effect transistors were created by the same operation as that in Example 49 except that a substrate treated with HMDS-SAM was used, the substrate temperature during deposition was 100° C., L=40 μm, and W=1500 μm. The obtained field effect transistors were subjected to a heat resistance test. Comparing the initial properties (μ=1.66 cm^2/Vs, Vth=−14 V, Ion/off˜10^9), the mobility was approximately 1.6 cm^2/Vs even after annealing at 100° C. and 150° C., and the values of these properties were kept approximately equal to the initial values thereof. The properties were improved, for example, Vth was shifted to a low potential side.

Q: For `CCCCCCCCCCc1ccc2cc3sc4c5cc6cc(CCCCCCCCCC)ccc6cc5sc4c3cc2c1` [(2)-64, 2,9-didecyldinaphtho[2,3-b:2′,3′-f]thieno[2,3-b]thiophene], which “Solubility 60° C. toluene” value [1] is on record?
A: Its value is 45 µg/mL (≈ 72.5 µM).

Q: What about the “relative intensity of the longest absorption wavelength” value [2] of the same molecule?
A: Its value is 1.

Q: And the “Solubility ratio Chloroform” value [2]?
A: The value was 1.

Q: With `Cc1ccc2cc3sc4c5cc6cc(C)ccc6cc5sc4c3cc2c1` [Ref-02] as the molecule, how does the solvent solubility [3] read?
A: The solvent solubility was “do not dissolve in most of solvents”.

Q: And the solubility ratio [2]?
A: The solubility ratio was 0.1.

Q: What does the source list for `CCCCCCCCCCc1ccc2cc3sc4c5cc6cc(CCCCCCCCCC)ccc6cc5sc4c3cc2c1` [(1)-12, 3,10-didecyl dinaphtho[2,3-b:2′,3′-f]thieno[2,3-b]thiophene]?
A: solubility ([1]; organic solvent or mixture, 60° C., toluene): > 260 µg/mL; solvent solubility [3]: higher solvent solubility than that of the compound (2)-64; relative intensity of the longest absorption wavelength [2]: 3.9; Solubility ratio Chloroform [2]: 3.8; melting point: 187 to 188 °C

Q: For `c1ccc(-c2ccc3cc4sc5c6cc7cc(-c8ccccc8)ccc7cc6sc5c4cc3c2)cc1` [(1)-22, 3,10-diphenyl dinaphtho[2,3-b:2′,3′-f]thieno[3,2-b]thiophene], which thermal stability [4] is on record?
A: The thermal stability was “high thermal stability”.

Q: What about the melting point of the same molecule?
A: Its melting point is > 300 °C.

Q: What does the source list for `Cc1ccc2cc3c(cc2c1)sc1c2cc4ccc(C)cc4cc2sc31` [Ref-03]?
A: solvent solubility [3]: do not dissolve in most of solvents; solubility ratio [2]: 0.5

Q: With `c1ccc2cc3c(cc2c1)sc1c2cc4ccccc4cc2sc31` [Ref-01, Dinaphtho[2,3-b:2′,3′-f]thieno[3,2-b]thiophene] as the molecule, how does the solvent solubility [3] read?
A: The solvent solubility was “does not dissolve in most of solvents”.

Q: And the solubility ratio [2]?
A: The solubility ratio was 1.
